The numbers were not newly measured in US20120269803A1, “SUBSTITUTED BENZOSULPHONAMIDES” (BAYER INTELLECTUAL PROPERTY GMBH, priority 2009, published 2012), which cites them from elsewhere.

One data set relates to MEK1/2. The conditions noted are these: MEK1/2 inhibitor, literature [17].
For the next data set, the system named is colon cancer. The conditions noted are these: oral treatment, mouse models, literature [18].
For data set [1] the following is noted: phase I/II clinical trials in humans, literature [19].

Consider `O=C(NOCC1CC1)c1ccc(F)c(F)c1Nc1ccc(I)cc1Cl` [PD184352], for which the IC50 result in the data set on MEK1/2 is “low nanomolar range”. Also, the “colon cancer growth in vivo” value in the data set on colon cancer is given as “inhibit colon cancer growth in vivo”. In addition, the clinical efficacy entry in data set [1] is recorded as “insufficient efficacy”.
